This is an account of results in patent publication US3953604A, “1-(2-Substituted-chromonyloxy)-2-hydroxy-3-(substituted phenoxy)propanes” (priority 1973, dated 1976).

Several values for one entry are separate records, joined by “and”; a condition that tells them apart may be missing. Equal values may be shown once. Where a name gives a salt, the structure may show the parent alone.

In data set [1] the test system is passive cutaneous anaphylaxis. As to the kind of experiment: passive cutaneous anaphylaxis test (PCA), egg albumin as the antigen: antiallergic activity. The format is in vivo. Conditions: iv; rat; injected intravenously together with the antigen; at least 3 groups of 5 rats; read-out: ID50 (dose which reduced the diameter of the wheel by 50%). Here is the method: Compounds representative of the above examples were evaluated for antiallergic activity in the rat by the passive cutaneous anaphylaxis test (hereafter PCA), utilizing egg albumin as the antigen.
(§1) The intensity of such PCA reaction is assessed by measuring the diameters of wheals which develop in the skin of the test animal. Details of the PCA test can be found in the following references: I. Motar, Life Sciences, 1:465 (1963); and B. Ogilvie, Immunology, 12:113 (1967).
In the following table, ID50 is the dose which reduced the diameter of the wheel by 50% when injected intravenously together with the antigen. At least 3 groups of 5 rats were used to determine the ID50 for each compound tested. The reference compound utilized was disodium chromoglycate (DSCG). The test compounds are identified by their respective Example Numbers above.

For data set [2], the system named is passive cutaneous anaphylaxis. The experiment in a line: duration of antiallergic activity by the PCA test, compared directly with DSCG. The format is in vivo. The following applies: rat; for Mean Reaction Diameters in Milimeters After 25 μ moles/kg of Test Compound: 25 μ moles/kg test compound 10 minutes before egg albumin antigen, groups of 10 animals. The procedure:
as §1
The duration of antiallergic activity of compounds representative of the above examples was also determined by the PCA test described in Example 66. In each case, 25 μ moles of the test compound were administered 10 minutes before injection of the egg albumin antigen in rats. The following table reports the mean reactions diameters of wheals in milimeters for the compounds described in the above Examples and disodium cromoglycate (DSCG). In order to achieve maxium significance of results, the effect of each compound was compared directly with DSCG using groups of 10 animals selected at random from the same population.

Data set [3] in a line: acute toxicity tests, intravenous, animals observed for one week. The following applies: in vivo, rat, dose is the maximum possible, limited by solubility, read-out: Therapeutic Ratio (Dose/ID50). The procedure:
Acute toxicity of compounds representative of the above Examples was determined in rats. The test compounds were administered intravenously in either 40 ml/kg of physiological saline or […] and saline. Compounds which are insoluble in saline were administered in […] and saline. Doses administered represent the maximun dose possible and are limited by solubility factors. ID50 in the table is used as defined in Example 66. Test compounds are identified by their respective Example Number, above.

Data set [4] deals with allergic bronchial asthma. Conditions: in vivo; cited from earlier work.

Consider `O=C(O)c1cc(=O)c2c(OCC(O)COc3ccc(Cl)cc3)cccc2o1` (centres unmarked) [Example 11, 1-(2-Carboxychromon-5-yloxy)-2-Hydroxy-3-p-Chlorophenoxypropane], for which the ED50 in data set [1] turned out to be 5.5 µmol/kg. Further, in data set [2], the “Mean Reaction Diameters in Milimeters After 25 μ moles/kg of Test Compound” value (“Mean Reaction Diameters … of Test Compound” for short) turned out to be 2.8 ± 0.4 Milimeters. In data set [3], the selectivity ratio at 168 h was over 43.
As for `CCOC(=O)c1ccc(OCC(O)COc2cccc3oc(C(=O)O)cc(=O)c23)cc1` (centres unmarked) [Example 44, 1-(2-Carboxychromon-5-yloxy)-2-Hydroxy-3-p-Carbethoxyphenoxypropane Sodium Salt], the ED50 in data set [1] came out at 8.25 µmol/kg. Moreover, the “Mean Reaction Diameters … of Test Compound” value in data set [2] is recorded as 6.1 ± 0.4 Milimeters.
Consider `Cc1ccccc1OCC(O)COc1cccc2oc(C(=O)O)cc(=O)c12` (centres unmarked) [Example 19, 1-(2-Carboxychromon-5-yloxy)-2-Hydroxy-3-o-Cresyloxypropane Sodium Salt], for which the ED50 in data set [1] was 7 µmol/kg. In data set [2], the “Mean Reaction Diameters … of Test Compound” value came to 10.3 ± 0.2 Milimeters. The selectivity ratio at 168 h in data set [3] is over 281.
For `O=C(O)c1cc(=O)c2c(OCC(O)COc3ccccc3)cccc2o1` (centres unmarked) [Example 4, 1-(2-Carboxychromon-5-yloxy)-2-Hydroxy-3-Phenoxypropane Sodium Salt], in that order: 6.25 µmol/kg, 13.0 ± 0.3 Milimeters and over 339.
`CC(=O)c1c(O)cccc1OCC(O)COc1cccc(C(F)(F)F)c1` (centres unmarked) [Example 57, 1-(2-Acetyl-3-hydroxphenoxy)-2-Hydroxy-3-(m-trifluoromethylphenoxy) propane]: the “Mean Reaction Diameters … of Test Compound” value in data set [2] was found to be 8.4 ± 0.5 Milimeters.
The same measure, in the same setting: to `O=C(O)c1cc(=O)c2c(OCC(O)COc3ccc(Cl)cc3Cl)cccc2o1` (centres unmarked) [Example 62, 1-(2-Carboxychromon-5-yloxy)-2-Hydroxy-3-(2,4-dichlorophenoxy) propane Sodium Salt] belongs 1.3 ± 0.5 Milimeters.
`O=C(O)c1cc(=O)c2ccc(OCC(O)COc3ccccc3)cc2o1` (centres unmarked) [Example 41, 1-(2-Carboxychromon-7-yloxy)-2-Hydroxy-3-Phenoxypropane Sodium Salt]: the ED50 in data set [1] was 14 µmol/kg.
On to `COc1ccc(OCC(O)COc2cccc3oc(C(=O)O)cc(=O)c23)cc1` (centres unmarked) [Example 15, 1-(2-Carboxychromon-5-yloxy)-2-Hydroxy-3-p-Methoxyphenoxypropane Sodium Salt], for which, in data set [1], the ED50 is 20 µmol/kg. Moreover, the “Mean Reaction Diameters … of Test Compound” value in data set [2] was 11.0 ± 0.5 Milimeters. Moreover, the selectivity ratio at 168 h in data set [3] is over 62.
The like results for `N#Cc1ccc(OCC(O)COc2cccc3oc(C(=O)O)cc(=O)c23)cc1` (centres unmarked) [Example 35, 1-(2-Carboxychromon-5-yloxy)-2-Hydroxy-3-p-Cyanophenoxypropane Sodium Salt] were, in that order, 0.75 µmol/kg, 8.9 ± 0.7 Milimeters and over 3170.
Consider `O=C(O)c1cc(=O)c2c(OCC(O)COc3ccc(Br)cc3)cccc2o1` (centres unmarked) [Example 8, 1-(2-Carboxychromon-5-yloxy)-2-Hydroxy-3-p-Bromophenoxypropane Sodium Salt], for which, in data set [1], the ED50 stood at 6.5 µmol/kg. Also, the “Mean Reaction Diameters … of Test Compound” value in data set [2] worked out at 6.4 ± 0.4 Milimeters. In addition, the selectivity ratio at 168 h in data set [3] is over 40.
For `O=C(O)c1cc(=O)c2c(OCC(O)COc3cccc4oc(C(=O)O)cc(=O)c34)cccc2o1` [DSCG, 1,3-di(2-carboxy-4-oxochromon-5-yloxy)-2-hydroxy-propane disodium salt, reference compound], in data set [2] (25 μ moles/kg DSCG 10 minutes before egg albumin antigen, direct comparison with the test compound of the same line, disodium salt), the “Mean Reaction Diameters in Milimeters After 25 μ moles/kg of DSCG” value was 13.4 ± 0.3 Milimeters and 10.6 ± 0.7 Milimeters and 9.7 ± 0.3 Milimeters and 8.9 ± 0.8 Milimeters and 8.6 ± 0.3 Milimeters and 12.3 ± 0.2 Milimeters. Besides, the selectivity ratio at 168 h in data set [3] is over 1150. In addition, in data set [4], the untoward side effects entry is on record as “several untoward side effects”.
For the molecule `CCOC(=O)c1cc(=O)c2c(OCC(O)COc3ccc(C#N)cc3)cccc2o1` (centres unmarked) [Example 34, 1-(2-Carbethoxychromon-5-yloxy)-2-Hydroxy-3-p-Cyanophenoxypropane], in data set [1], the ED50 was 2.5 µmol/kg. Moreover, the selectivity ratio at 168 h in data set [3] is over 84.
`O=C(O)c1cc(=O)c2c(OCC(O)COc3ccc([N+](=O)[O-])cc3)cccc2o1` (centres unmarked) [Example 38, 1-(2-Carboxychromon-5-yloxy)-2-Hydroxy-3-p-Nitrophenoxypropane Sodium Salt]: the ED50 in data set [1] was 3.6 µmol/kg. For the same molecule, the “Mean Reaction Diameters … of Test Compound” value in data set [2] was determined as 11.2 ± 0.3 Milimeters. Moreover, the selectivity ratio at 168 h in data set [3] was over 173.
`O=C(O)c1cc(=O)c2c(OCC(O)COc3ccc(F)cc3)cccc2o1` (centres unmarked) [Example 65, 1-(2-Carboxychromon-5-yloxy)-2-Hydroxy-3-(p-fluorophenoxy)propane Sodium Salt]: the “Mean Reaction Diameters … of Test Compound” value in data set [2] was found to be 12.2 ± 0.2 Milimeters.
